Experimental data from patent US8946270B2, “Amido-pyridyl ether compounds and compositions and their use against parasites” (Merial Limited, priority 2011, dated 2015).
Like-named read-outs stand apart in the source and are kept apart here.

What was measured:
[1] = test system: Haematobia irritans; test: whole plant or invertebrate; settings: 5 μg/cm^2; for mortality at 5 µg/cm2: Haematobia irritans, read-out: Contact SP Horn Fly PCT Mortality (%)
Experimental: A solution of the test compound was used to treat a filter paper contained within a Petri dish and the filter paper was allowed to evaporate to dryness. A small piece of absorbent cotton moistened with 10% sucrose and ten adult flies (Haematobia irritans or Stomoxys calcitrans) were added to each dish. Dishes were capped and held at room temperature. Assessments were performed at 4 and 24 hours after infestation in comparison with untreated controls.

[2] = test system: Rhipicephalus sanguineus (Brown Dog Tick); test: whole plant or invertebrate; settings: for mortality at 200 ppm: Rhipicephalus sanguineus, read-out: Contact SP Rhicicep PCT Mortality (%); for Contact SP Rhicicep PCT Mortality (%): 200 ppm
Source text: A solution of the test compound was used to coat the inner wall of glass vials and to treat two filter papers. Once dried, one filter paper was placed in the cap of the vial and the other in the bottom of the vial. Each treated vial was infested with 10 adult Rhipicephalus sanguineus (Brown Dog Tick). […]

CC(C)CNC(=O)c1ccc(C(C)COc2cccc(OC(F)(F)F)c2)cn1 (racemic) [Compound 251]
Contact SP Horn Fly PCT Mortality (%) ([1]; timepoint 4 hrs): 80% | Contact SP Horn Fly PCT Mortality (%) ([1]; timepoint 24 hrs): 100%

CC(C)CNC(=O)c1ccc(COc2ccc(OC(F)(F)F)cc2)cn1 [Compound 10]
mortality at 200 ppm ([2]; timepoint 4 hrs): 0% | mortality at 200 ppm ([2]; timepoint 24 hrs): 100% | mortality at 5 µg/cm2 ([1]; timepoint 4 hrs): 90% | mortality at 5 µg/cm2 ([1]; timepoint 24 hrs): 90%

COCCCNC(=O)c1ccc(COc2ccc(OC(F)(F)F)cc2)cn1 [Compound 18]
Contact SP Horn Fly PCT Mortality (%) ([1]; timepoint 4 hrs): 0% | Contact SP Horn Fly PCT Mortality (%) ([1]; timepoint 24 hrs): 40%

CCNC(=O)c1ccc(COc2ccc(OC(F)(F)F)cc2)cn1 [Compound 23]
Contact SP Rhicicep PCT Mortality (%) ([2]; timepoint 4 hrs): 80% | Contact SP Rhicicep PCT Mortality (%) ([2]; timepoint 24 hrs): 90%

CCCNC(=O)c1ccc(COc2ccc(OC(F)(F)F)cc2)cn1 [Compound 34]
Contact SP Horn Fly PCT Mortality (%) ([1]; timepoint 4 hrs): 60% | Contact SP Horn Fly PCT Mortality (%) ([1]; timepoint 24 hrs): 80%

C=C(C)CNC(=O)c1ccc(COc2ccc(OC(F)(F)F)cc2)cn1 [Compound 38]
Contact SP Horn Fly PCT Mortality (%) ([1]; timepoint 4 hrs): 50% | Contact SP Horn Fly PCT Mortality (%) ([1]; timepoint 24 hrs): 80%

CCCCNC(=O)c1ccc(COc2ccc(OC(F)(F)F)cc2)cn1 [Compound 40]
Contact SP Horn Fly PCT Mortality (%) ([1]; timepoint 4 hrs): 0% | Contact SP Horn Fly PCT Mortality (%) ([1]; timepoint 24 hrs): 40%

CCC(C)CNC(=O)c1ccc(COc2ccc(OC(F)(F)F)cc2)cn1 (stereo not drawn) [Compound 41]
mortality at 5 µg/cm2 ([1]; timepoint 4 hrs): 60% | mortality at 5 µg/cm2 ([1]; timepoint 24 hrs): 60%

CSCCNC(=O)c1ccc(COc2cccc(OC(F)(F)F)c2)cn1 [Compound 49]
mortality at 5 µg/cm2 ([1]; timepoint 4 hrs): 60% | mortality at 5 µg/cm2 ([1]; timepoint 24 hrs): 0%

CC(C)NC(=O)c1ccc(COc2cccc(OC(F)(F)F)c2)cn1 [Compound 50]
Contact SP Horn Fly PCT Mortality (%) ([1]; timepoint 4 hrs): 70% | Contact SP Horn Fly PCT Mortality (%) ([1]; timepoint 24 hrs): 80%

C=C(C)CNC(=O)c1ccc(COc2cccc(OC(F)(F)F)c2)cn1 [Compound 53]
Contact SP Horn Fly PCT Mortality (%) ([1]; timepoint 4 hrs): 20% | Contact SP Horn Fly PCT Mortality (%) ([1]; timepoint 24 hrs): 20%

CCC(C)CNC(=O)c1ccc(COc2cccc(OC(F)(F)F)c2)cn1 (stereo not drawn) [Compound 57]
Contact SP Horn Fly PCT Mortality (%) ([1]; timepoint 4 hrs): 70% | Contact SP Horn Fly PCT Mortality (%) ([1]; timepoint 24 hrs): 80%

Cc1cccc(OCc2ccc(C(=O)NCC3CC3)nc2)c1 [Compound 61]
Contact SP Horn Fly PCT Mortality (%) ([1]; timepoint 4 hrs): 90% | Contact SP Horn Fly PCT Mortality (%) ([1]; timepoint 24 hrs): 90%

CCc1cccc(OCc2ccc(C(=O)NCC3CCOCC3)nc2)c1 [Compound 68]
mortality at 200 ppm ([2]; timepoint 4 hrs): 50% | mortality at 200 ppm ([2]; timepoint 24 hrs): 90%

CCc1cccc(OCc2ccc(C(=O)NCCSC)nc2)c1 [Compound 70]
Contact SP Rhicicep PCT Mortality (%) ([2]; timepoint 4 hrs): 80% | Contact SP Rhicicep PCT Mortality (%) ([2]; timepoint 24 hrs): 100%

CCc1cccc(OCc2ccc(C(=O)NCC3CC3)nc2)c1 [Compound 73]
Contact SP Horn Fly PCT Mortality (%) ([1]; timepoint 4 hrs): 100% | Contact SP Horn Fly PCT Mortality (%) ([1]; timepoint 24 hrs): 100%

O=C(NCC1CC1)c1ccc(COc2ccc(C(F)(F)F)cc2)cn1 [Compound 95]
Contact SP Horn Fly PCT Mortality (%) ([1]; timepoint 4 hrs): 50% | Contact SP Horn Fly PCT Mortality (%) ([1]; timepoint 24 hrs): 70%

O=C(NCc1ccncc1)c1ccc(COc2cc(F)cc(Br)c2)cn1 [Compound 114]
Contact SP Rhicicep PCT Mortality (%) ([2]; timepoint 4 hrs): 40% | Contact SP Rhicicep PCT Mortality (%) ([2]; timepoint 24 hrs): 60%

CSCCNC(=O)c1ccc(COc2cc(F)cc(Br)c2)cn1 [Compound 115]
Contact SP Horn Fly PCT Mortality (%) ([1]; timepoint 4 hrs): 0% | Contact SP Horn Fly PCT Mortality (%) ([1]; timepoint 24 hrs): 60%

CCCNC(=O)c1ccc(COc2cc(F)cc(Br)c2)cn1 [Compound 120]
Contact SP Rhicicep PCT Mortality (%) ([2]; timepoint 4 hrs): 60% | Contact SP Rhicicep PCT Mortality (%) ([2]; timepoint 24 hrs): 70%

O=C(NCCc1ccccn1)c1ccc(COc2cc(F)cc(Br)c2)cn1 [Compound 121]
Contact SP Horn Fly PCT Mortality (%) ([1]; timepoint 4 hrs): 80% | Contact SP Horn Fly PCT Mortality (%) ([1]; timepoint 24 hrs): 80%

CC(C)CNC(=O)c1ccc(COc2cc(F)cc(Br)c2)cn1 [Compound 125]
mortality at 5 µg/cm2 ([1]; timepoint 4 hrs): 100% | mortality at 5 µg/cm2 ([1]; timepoint 24 hrs): 100%

CC(C)CCNC(=O)c1ccc(COc2cc(F)cc(Br)c2)cn1 [Compound 129]
mortality at 5 µg/cm2 ([1]; timepoint 4 hrs): 40% | mortality at 5 µg/cm2 ([1]; timepoint 24 hrs): 40%

CC(C)CNC(=O)c1ccc(COCc2cccc(OC(F)(F)F)c2)cn1 [Compound 132]
Contact SP Horn Fly PCT Mortality (%) ([1]; timepoint 4 hrs): 100% | Contact SP Horn Fly PCT Mortality (%) ([1]; timepoint 24 hrs): 100%

CC(C)CNC(=O)c1ccc(COCc2ccc(OC(F)(F)F)cc2)cn1 [Compound 133]
mortality at 5 µg/cm2 ([1]; timepoint 4 hrs): 80% | mortality at 5 µg/cm2 ([1]; timepoint 24 hrs): 80%

C=C(C)CNC(=O)c1ccc(COc2cccc(OC)c2)cn1 [Compound 150]
Contact SP Rhicicep PCT Mortality (%) ([2]; timepoint 4 hrs): 70% | Contact SP Rhicicep PCT Mortality (%) ([2]; timepoint 24 hrs): 70%

COc1cccc(OCc2ccc(C(=O)NCC(C)C)nc2)c1 [Compound 151]
Contact SP Rhicicep PCT Mortality (%) ([2]; timepoint 4 hrs): 0% | Contact SP Rhicicep PCT Mortality (%) ([2]; timepoint 24 hrs): 80%

CC(C)CNC(=O)c1ccc(COc2ccc(F)c(F)c2)cn1 [Compound 155]
Contact SP Rhicicep PCT Mortality (%) ([2]; timepoint 4 hrs): 60% | Contact SP Rhicicep PCT Mortality (%) ([2]; timepoint 24 hrs): 100%

COCCCNC(=O)c1ccc(COc2cccc(-c3cccc(F)c3)c2)cn1 [Compound 166]
Contact SP Rhicicep PCT Mortality (%) ([2]; timepoint 4 hrs): 40% | Contact SP Rhicicep PCT Mortality (%) ([2]; timepoint 24 hrs): 80%
